Reference: patent US9340590B2 (priority 2011, dated 2016)
Read-outs that look alike come from different tables or passages of the source. Positions of bridges follow the written chain, without caps; N, C: chain ends. Non-standard residues stand in square brackets, D forms with d. Residues, ends and D or L forms follow the SMILES beside them. Trp(1-Me) = Cn1cc(C[C@H](N)C(=O)O)c2ccccc21; Pra = C#CC[C@H](N)C(=O)O

Legend:
Test in all cases: cell-based
[1] = biological target: hNav1.7 (Homo sapiens, UniProt Q15858); format: cell-based; conditions: IonWorks Quattro, read-out: IWQ Use Nav1.7
hNav1.7, sequence (Q15858 whole entry, looked up): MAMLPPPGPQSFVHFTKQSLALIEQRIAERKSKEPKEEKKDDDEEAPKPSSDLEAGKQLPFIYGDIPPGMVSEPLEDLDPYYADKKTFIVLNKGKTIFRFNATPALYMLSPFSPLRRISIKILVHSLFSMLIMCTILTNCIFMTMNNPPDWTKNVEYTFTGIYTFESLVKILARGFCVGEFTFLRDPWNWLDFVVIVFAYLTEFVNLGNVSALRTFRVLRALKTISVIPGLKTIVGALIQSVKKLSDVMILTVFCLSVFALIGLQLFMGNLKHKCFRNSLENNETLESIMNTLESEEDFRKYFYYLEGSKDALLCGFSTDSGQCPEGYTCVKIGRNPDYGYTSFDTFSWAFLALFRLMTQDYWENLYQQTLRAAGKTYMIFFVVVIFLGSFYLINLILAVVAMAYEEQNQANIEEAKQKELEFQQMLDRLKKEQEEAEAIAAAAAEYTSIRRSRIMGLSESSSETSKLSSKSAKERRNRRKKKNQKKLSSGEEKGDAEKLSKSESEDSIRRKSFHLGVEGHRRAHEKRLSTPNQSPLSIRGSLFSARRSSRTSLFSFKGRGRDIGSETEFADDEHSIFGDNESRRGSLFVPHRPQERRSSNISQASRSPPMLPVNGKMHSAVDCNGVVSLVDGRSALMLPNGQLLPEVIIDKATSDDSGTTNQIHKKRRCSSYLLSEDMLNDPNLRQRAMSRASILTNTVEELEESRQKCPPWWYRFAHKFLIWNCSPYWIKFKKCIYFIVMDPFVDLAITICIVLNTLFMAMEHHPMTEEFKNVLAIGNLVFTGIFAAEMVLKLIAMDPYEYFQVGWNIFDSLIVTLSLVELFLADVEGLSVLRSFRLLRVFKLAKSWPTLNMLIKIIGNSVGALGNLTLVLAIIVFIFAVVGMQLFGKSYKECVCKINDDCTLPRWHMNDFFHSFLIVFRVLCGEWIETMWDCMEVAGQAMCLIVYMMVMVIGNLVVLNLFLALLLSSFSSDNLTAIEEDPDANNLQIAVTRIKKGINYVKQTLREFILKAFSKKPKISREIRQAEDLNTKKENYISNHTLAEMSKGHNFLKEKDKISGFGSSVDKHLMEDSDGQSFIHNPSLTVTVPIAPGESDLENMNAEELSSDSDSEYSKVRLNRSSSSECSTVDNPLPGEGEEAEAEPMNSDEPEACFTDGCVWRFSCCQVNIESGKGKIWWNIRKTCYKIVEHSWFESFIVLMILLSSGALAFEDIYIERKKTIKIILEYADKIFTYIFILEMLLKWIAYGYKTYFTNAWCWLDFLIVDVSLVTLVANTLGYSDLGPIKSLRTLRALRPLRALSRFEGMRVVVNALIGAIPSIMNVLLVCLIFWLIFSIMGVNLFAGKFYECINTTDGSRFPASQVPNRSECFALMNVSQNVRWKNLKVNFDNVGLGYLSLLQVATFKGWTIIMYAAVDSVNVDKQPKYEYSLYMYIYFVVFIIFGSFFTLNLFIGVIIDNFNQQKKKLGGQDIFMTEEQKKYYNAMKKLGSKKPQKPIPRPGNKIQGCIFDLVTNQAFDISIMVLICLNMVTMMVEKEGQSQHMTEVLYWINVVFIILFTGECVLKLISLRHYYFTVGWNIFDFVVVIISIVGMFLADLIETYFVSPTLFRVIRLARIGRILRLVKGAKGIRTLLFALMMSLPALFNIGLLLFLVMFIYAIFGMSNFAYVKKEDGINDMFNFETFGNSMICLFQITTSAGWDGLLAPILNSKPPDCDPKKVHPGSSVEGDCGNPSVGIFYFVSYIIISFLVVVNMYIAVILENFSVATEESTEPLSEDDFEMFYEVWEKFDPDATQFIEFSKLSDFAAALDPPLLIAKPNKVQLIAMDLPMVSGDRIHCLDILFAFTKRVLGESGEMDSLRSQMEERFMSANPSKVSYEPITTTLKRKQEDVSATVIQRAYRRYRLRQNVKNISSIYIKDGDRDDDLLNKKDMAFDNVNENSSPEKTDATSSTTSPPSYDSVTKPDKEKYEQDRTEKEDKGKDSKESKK

[2] = biological target: hNav1.3 (Homo sapiens, UniProt Q9NY46); conditions: IonWorks Quattro, read-out: IWQ Use Nav1.3
hNav1.3, sequence (Q9NY46 whole entry, looked up): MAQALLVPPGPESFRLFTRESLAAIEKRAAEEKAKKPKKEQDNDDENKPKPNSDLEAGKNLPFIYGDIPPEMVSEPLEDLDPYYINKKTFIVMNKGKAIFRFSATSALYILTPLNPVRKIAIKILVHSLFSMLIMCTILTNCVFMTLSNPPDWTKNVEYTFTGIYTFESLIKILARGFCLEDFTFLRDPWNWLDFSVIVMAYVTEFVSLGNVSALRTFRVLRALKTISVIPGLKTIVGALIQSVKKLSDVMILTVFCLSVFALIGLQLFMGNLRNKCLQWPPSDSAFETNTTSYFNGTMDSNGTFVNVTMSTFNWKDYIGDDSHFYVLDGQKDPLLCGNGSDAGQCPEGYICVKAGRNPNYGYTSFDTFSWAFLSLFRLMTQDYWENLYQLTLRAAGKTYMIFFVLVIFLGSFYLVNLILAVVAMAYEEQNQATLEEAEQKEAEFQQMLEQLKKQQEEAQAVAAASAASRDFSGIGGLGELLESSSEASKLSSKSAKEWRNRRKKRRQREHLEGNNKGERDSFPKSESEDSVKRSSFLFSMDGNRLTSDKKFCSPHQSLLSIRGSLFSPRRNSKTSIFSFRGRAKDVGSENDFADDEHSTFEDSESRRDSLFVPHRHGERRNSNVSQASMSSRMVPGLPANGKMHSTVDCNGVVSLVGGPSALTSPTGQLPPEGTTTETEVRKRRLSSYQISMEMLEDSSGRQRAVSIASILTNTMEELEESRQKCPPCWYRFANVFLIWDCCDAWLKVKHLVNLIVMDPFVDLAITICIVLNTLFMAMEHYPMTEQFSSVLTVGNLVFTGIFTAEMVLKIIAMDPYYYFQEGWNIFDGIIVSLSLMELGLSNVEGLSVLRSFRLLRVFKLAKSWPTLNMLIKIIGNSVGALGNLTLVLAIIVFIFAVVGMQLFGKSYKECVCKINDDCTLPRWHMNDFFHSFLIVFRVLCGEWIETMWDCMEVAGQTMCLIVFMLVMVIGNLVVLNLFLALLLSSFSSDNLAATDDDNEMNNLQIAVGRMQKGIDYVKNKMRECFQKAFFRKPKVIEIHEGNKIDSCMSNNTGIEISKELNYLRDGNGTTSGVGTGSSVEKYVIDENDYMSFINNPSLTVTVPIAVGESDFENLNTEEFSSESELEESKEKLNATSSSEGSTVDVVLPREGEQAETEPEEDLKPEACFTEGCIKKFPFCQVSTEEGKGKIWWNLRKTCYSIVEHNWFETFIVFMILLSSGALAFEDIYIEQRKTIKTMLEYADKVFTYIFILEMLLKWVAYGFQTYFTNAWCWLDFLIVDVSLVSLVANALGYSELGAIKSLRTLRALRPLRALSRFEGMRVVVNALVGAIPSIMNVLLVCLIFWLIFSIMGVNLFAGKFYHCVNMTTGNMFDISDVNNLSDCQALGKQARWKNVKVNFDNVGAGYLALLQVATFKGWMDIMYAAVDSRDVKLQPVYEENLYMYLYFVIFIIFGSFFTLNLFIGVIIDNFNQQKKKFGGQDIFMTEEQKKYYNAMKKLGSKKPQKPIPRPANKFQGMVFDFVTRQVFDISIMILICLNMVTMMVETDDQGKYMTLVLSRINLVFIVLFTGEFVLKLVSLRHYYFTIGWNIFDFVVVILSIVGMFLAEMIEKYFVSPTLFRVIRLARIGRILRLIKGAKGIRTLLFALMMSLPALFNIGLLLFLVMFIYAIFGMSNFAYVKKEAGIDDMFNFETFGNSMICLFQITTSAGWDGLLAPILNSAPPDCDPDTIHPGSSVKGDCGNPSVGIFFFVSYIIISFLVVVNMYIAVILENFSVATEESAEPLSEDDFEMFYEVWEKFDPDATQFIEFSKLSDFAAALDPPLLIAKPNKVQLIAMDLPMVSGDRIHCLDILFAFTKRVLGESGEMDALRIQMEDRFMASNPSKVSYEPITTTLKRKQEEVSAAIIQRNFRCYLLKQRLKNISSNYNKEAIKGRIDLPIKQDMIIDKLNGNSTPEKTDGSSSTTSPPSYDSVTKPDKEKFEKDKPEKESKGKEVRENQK

[3] = biological target: hNav1.5 (Homo sapiens, UniProt Q14524); conditions: IonWorks Quattro, read-out: IWQ Use Nav1.5
[4] = use-dependent protocol, hNav1.7
[5] = use-dependent protocol, hNav1.3
[6] = use-dependent protocol, hNav1.5

Question: Which IC50 ([1]; Use) does the source give for `CC[C@H](C)[C@@H]1NC(=O)[C@@H]2CSSC[C@@H]3NC(=O)[C@H](C(C)C)NC(=O)[C@H](CC(C)C)NC(=O)[C@H](CC(N)=O)NC(=O)[C@@H]4CCCN4C(=O)[C@H](CCCNC(=N)N)NC(=O)[C@H](CSSC[C@H](NC(=O)[C@@H](N)CC(=O)O)C(=O)N[C@@H](CC(C)C)C(=O)NCC(=O)N[C@@H](Cc4ccccc4)C(=O)N[C@@H](CCSC)C(=O)N[C@@H](CCCNC(=N)N)C(=O)N[C@@H](CCCCN)C(=O)N2)NC(=O)[C@H](CSSC[C@@H](C(=O)N[C@@H](CCCCN)C(=O)N[C@@H](Cc2ccc(O)cc2)C(=O)N[C@H](C(=O)N[C@@H](Cc2ccccc2)C(N)=O)C(C)C)NC(=O)[C@H](Cc2c[nH]c4ccccc24)NC(=O)[C@H](CCCCN)NC(=O)[C@H](Cc2cnc[nH]2)NC(=O)[C@H]([C@@H](C)O)NC(=O)[C@H](CCCNC(=N)N)NC(=O)[C@H](CO)NC3=O)NC(=O)[C@H](CCCCN)NC(=O)[C@H](CC(=O)O)NC(=O)[C@H](CCC(=O)O)NC(=O)[C@H](CC(=O)O)NC(=O)[C@@H]2CCCN2C1=O` [compound 27] (H-DCLGFMRKCIPDEDKCCRPNLVCSRTHKWCKYVF-NH2; disulfide 2-17, 9-23, 16-30) here?
Answer: Its IC50 is 0.26 µM.

Question: And the IC50 ([2]; Use)?
Answer: Its IC50 is 0.22 µM.

Question: And the IC50 ([3]; Use)?
Answer: The IC50 was 9.38 µM.

Question: For `CC[C@@H]1NC(=O)CNC(=O)[C@H](CC(C)C)NC(=O)[C@@H](NC(=O)[C@@H](N)CC(=O)O)CSSC[C@@H]2NC(=O)[C@@H]3CSSC[C@@H](C(=O)N[C@@H](CCCCN)C(=O)N[C@@H](Cc4ccc(O)cc4)C(=O)N[C@H](C(=O)N[C@@H](Cc4ccccc4)C(N)=O)C(C)C)NC(=O)[C@H](Cc4c[nH]c5ccccc45)NC(=O)[C@H](CCCCN)NC(=O)[C@H](Cc4cnc[nH]4)NC(=O)[C@H]([C@@H](C)O)NC(=O)[C@H](CCCNC(=N)N)NC(=O)[C@H](CO)NC(=O)[C@H](CSSC[C@H](NC(=O)[C@H](CCCCN)NC(=O)[C@H](CCCNC(=N)N)NC(=O)[C@H](CCSC)NC1=O)C(=O)N[C@@H]([C@@H](C)CC)C(=O)N1CCC[C@H]1C(=O)N[C@@H](CC(=O)O)C(=O)N[C@@H](CC(N)=O)C(=O)N[C@@H](CC(=O)O)C(=O)N[C@@H](CCCCN)C(=O)N3)NC(=O)[C@H](C(C)C)NC(=O)[C@H](CC(C)C)NC(=O)[C@H](CC(N)=O)NC(=O)[C@@H]1CCCN1C(=O)[C@H](CCCNC(=N)N)NC2=O` [compound 649], which IC50 [1, 4] is on record?
Answer: Its IC50 is 0.69 µM.

Question: And the IC50 [2, 5]?
Answer: The IC50 was 1.3 µM.

Question: And the IC50 [3, 6]?
Answer: Its IC50 is over 5 µM.

Question: What does the source list for `CC[C@H](C)[C@@H]1NC(=O)[C@@H]2CSSC[C@@H]3NC(=O)[C@H](C(C)C)NC(=O)[C@H](CC(C)C)NC(=O)[C@H](CCCCN)NC(=O)[C@@H]4CCCN4C(=O)[C@H](CCCNC(=N)N)NC(=O)[C@H](CSSC[C@H](NC(=O)[C@@H](N)CC(=O)O)C(=O)N[C@@H](CC(C)C)C(=O)NCC(=O)N[C@@H](Cc4ccccc4)C(=O)N[C@@H](CCSC)C(=O)N[C@@H](CCCNC(=N)N)C(=O)N[C@@H](CCCCN)C(=O)N2)NC(=O)[C@H](CSSC[C@@H](C(=O)N[C@@H](CCCCN)C(=O)N[C@@H](Cc2ccc(O)cc2)C(=O)N[C@H](C(=O)N[C@@H](Cc2ccccc2)C(N)=O)C(C)C)NC(=O)[C@H](Cc2c[nH]c4ccccc24)NC(=O)[C@H](CCCCN)NC(=O)[C@H](Cc2cnc[nH]2)NC(=O)[C@H]([C@@H](C)O)NC(=O)[C@H](CCCNC(=N)N)NC(=O)[C@H](CO)NC3=O)NC(=O)[C@H](CCCCN)NC(=O)[C@H](CC(=O)O)NC(=O)[C@H](CC(N)=O)NC(=O)[C@H](CC(=O)O)NC(=O)[C@@H]2CCCN2C1=O` [compound 51] (H-DCLGFMRKCIPDNDKCCRPKLVCSRTHKWCKYVF-NH2; disulfide 2-17, 9-23, 16-30)?
Answer: IC50 ([1]; Use): 0.61 µM; IC50 ([2]; Use): 0.33 µM; IC50 ([3]; Use): 19 µM

Question: What does the source list for `C#CC[C@@H]1NC(=O)[C@H](CC(=O)O)NC(=O)[C@H](CC(N)=O)NC(=O)[C@H](CC(=O)O)NC(=O)[C@@H]2CCCN2C(=O)[C@H]([C@@H](C)CC)NC(=O)[C@@H]2CSSC[C@@H]3NC(=O)[C@H](C(C)C)NC(=O)[C@H](CC(C)C)NC(=O)[C@H](CC(N)=O)NC(=O)[C@@H]4CCCN4C(=O)[C@H](CCCNC(=N)N)NC(=O)[C@H](CSSC[C@H](NC(=O)[C@@H](N)CC(=O)O)C(=O)N[C@@H](CC(C)C)C(=O)NCC(=O)N[C@@H](Cc4ccccc4)C(=O)N[C@@H](Cc4ccccc4)C(=O)N[C@@H](CCCNC(=N)N)C(=O)N[C@@H](CCCCN)C(=O)N2)NC(=O)[C@H](CSSC[C@@H](C(=O)N[C@@H](CCCCN)C(=O)N[C@@H](Cc2ccc(O)cc2)C(=O)N[C@H](C(=O)N[C@@H](Cc2ccccc2)C(N)=O)C(C)C)NC(=O)[C@H](Cc2c[nH]c4ccccc24)NC(=O)[C@H](CCCCN)NC(=O)[C@H](Cc2c[nH]cn2)NC(=O)[C@H]([C@@H](C)O)NC(=O)[C@H](CCCNC(=N)N)NC(=O)[C@H](CO)NC3=O)NC1=O` [compound 736] (H-DCLGFFRKCIPDND[Pra]CCRPNLVCSRTHKWCKYVF-NH2; disulfide 2-17, 9-23, 16-30)?
Answer: IC50 ([1]; use-dependent block, hNav1.7): > 5 µM; IC50 ([2]; use-dependent block, hNav1.3): > 5 µM; IC50 ([3]; use-dependent block, hNav1.5): 32.6 µM

Question: `CSCC[C@@H]1NC(=O)[C@H](C)NC(=O)CNC(=O)[C@H](CC(C)C)NC(=O)[C@@H](NC(=O)[C@@H](N)CC(=O)O)CSSC[C@@H]2NC(=O)[C@@H]3CSSC[C@@H](C(=O)N[C@@H](CCCCN)C(=O)N[C@@H](Cc4ccc(O)cc4)C(=O)N[C@H](C(=O)N[C@@H](Cc4ccccc4)C(N)=O)C(C)C)NC(=O)[C@H](Cc4c[nH]c5ccccc45)NC(=O)[C@H](CCCCN)NC(=O)[C@H](Cc4c[nH]cn4)NC(=O)[C@H]([C@@H](C)O)NC(=O)[C@H](CCCNC(=N)N)NC(=O)[C@H](CO)NC(=O)[C@H](CSSC[C@H](NC(=O)[C@H](CCCCN)NC(=O)[C@H](CCCNC(=N)N)NC1=O)C(=O)N[C@@H](CC(=O)O)C(=O)N1CCC[C@H]1C(=O)N[C@@H](CC(=O)O)C(=O)N[C@@H](CC(N)=O)C(=O)N[C@@H](CC(=O)O)C(=O)N[C@@H](CCCCN)C(=O)N3)NC(=O)[C@H](C(C)C)NC(=O)[C@H](CC(C)C)NC(=O)[C@H](CC(N)=O)NC(=O)[C@@H]1CCCN1C(=O)[C@H](CCCNC(=N)N)NC2=O` [compound 700] (H-DCLGAMRKCDPDNDKCCRPNLVCSRTHKWCKYVF-NH2; disulfide 2-17, 9-23, 16-30) was tested. Which IC50 [1, 4] did it give?
Answer: The IC50 was 0.74 µM.

Question: What about the IC50 [2, 5] of the same compound?
Answer: The IC50 was 0.84 µM.

Question: What about the IC50 [3, 6] of the same compound?
Answer: The IC50 was 35 µM.

Question: How did the IC50 ([1]; use-dependent block, hNav1.7) turn out when `CC[C@H](C)[C@@H]1NC(=O)[C@@H]2CSSC[C@@H]3NC(=O)[C@H](C(C)C)NC(=O)[C@H](CC(C)C)NC(=O)[C@H](CC(N)=O)NC(=O)[C@@H]4CCCN4C(=O)[C@H](CCCNC(=N)N)NC(=O)[C@H](CSSC[C@H](NC(=O)[C@@H](N)CC(=O)O)C(=O)N[C@@H](CC(C)C)C(=O)NCC(=O)N[C@@H](C)C(=O)N[C@@H](Cc4ccccc4)C(=O)N[C@@H](CCCNC(=N)N)C(=O)N[C@@H](CCCCN)C(=O)N2)NC(=O)[C@H](CSSC[C@@H](C(=O)N[C@@H](CCCCN)C(=O)N[C@@H](Cc2ccc(O)cc2)C(=O)N[C@H](C(=O)N[C@@H](Cc2ccccc2)C(=O)O)C(C)C)NC(=O)[C@H](Cc2c[nH]c4ccccc24)NC(=O)[C@H](CCC(=O)O)NC(=O)[C@H](Cc2c[nH]cn2)NC(=O)[C@H]([C@@H](C)O)NC(=O)[C@H](CCCNC(=N)N)NC(=O)[C@H](CO)NC3=O)NC(=O)[C@H](CCCCN)NC(=O)[C@H](CC(=O)O)NC(=O)[C@H](CC(N)=O)NC(=O)[C@H](CC(=O)O)NC(=O)[C@@H]2CCCN2C1=O` [compound 826] (H-DCLGAFRKCIPDNDKCCRPNLVCSRTHEWCKYVF-OH; disulfide 2-17, 9-23, 16-30) was run?
Answer: The IC50 was over 5 µM.

Question: And the IC50 ([2]; use-dependent block, hNav1.3)?
Answer: Its IC50 is 1.8 µM.

Question: What about the IC50 ([3]; use-dependent block, hNav1.5) of the same compound?
Answer: The IC50 was over 5 µM.

Question: What does the source list for `CC[C@H](C)[C@@H]1NC(=O)[C@@H]2CSSC[C@@H]3NC(=O)[C@H](C(C)C)NC(=O)[C@H](CC(C)C)NC(=O)[C@H](CC(N)=O)NC(=O)[C@@H]4CCCN4C(=O)[C@H](CCCNC(=N)N)NC(=O)[C@H](CSSC[C@H](NC(=O)[C@@H](N)CC(=O)O)C(=O)N[C@@H](CC(C)C)C(=O)NCC(=O)N[C@@H](Cc4ccccc4)C(=O)N[C@@H](CCSC)C(=O)N[C@@H](CCCNC(=N)N)C(=O)N[C@@H](CCCCN)C(=O)N2)NC(=O)[C@H](CSSC[C@@H](C(=O)N[C@@H](CCCCN)C(=O)N[C@@H](Cc2cn(C)c4ccccc24)C(=O)N[C@H](C(=O)N[C@@H](Cc2ccccc2)C(N)=O)C(C)C)NC(=O)[C@H](Cc2c[nH]c4ccccc24)NC(=O)[C@H](CCCCN)NC(=O)[C@H](Cc2c[nH]cn2)NC(=O)[C@H]([C@@H](C)O)NC(=O)[C@H](CCCNC(=N)N)NC(=O)[C@H](CO)NC3=O)NC(=O)[C@H](CCCCN)NC(=O)[C@H](CC(=O)O)NC(=O)[C@H](CC(N)=O)NC(=O)[C@H](CC(=O)O)NC(=O)[C@@H]2CCCN2C1=O` [compound 246] (H-DCLGFMRKCIPDNDKCCRPNLVCSRTHKWCK[Trp(1-Me)]VF-NH2; disulfide 2-17, 9-23, 16-30)?
Answer: IC50 ([1]; Table 25, use, […]): 0.06 µM; IC50 ([2]; Table 25, use, […]): 0.03 µM; IC50 ([3]; Table 25, use, […]): 14.4 µM
